Columns and labels:
[1] = system: secretion of acidic gastric juice in dogs provided with a Heidenhain pouch and whose gastric secretion is stimulated with histamine; experiment: Inhibition of histamine-stimulated gastric acid secretion in Heidenhain pouch dogs, intravenous injection; format: in vivo, dog; conditions: for biological activity (inhibition of the secretion of acidic gastric juice), in words: dog, histamine-stimulated gastric secretion; for biological potency (amount causing a 50-70% inhibition of acid secretion): intravenous injection, dog with Heidenhain pouch, secretion stimulated to 60-80% of maximum by histamine infusion, expressed as a range of doses; for biological activity, inhibition of gastric secretion: single determination, single intravenous injection
Procedure: This test is used to determine the biological potency of the products, which is defined as the amount of the products which, on administration by intravenous injection to a dog provided with a Heidenhain pouch and whose secretion of gastric acid is stimulated to 60-80- % of the maximum level of secretion by an infusion of histamine, causes a 50-70% inhibition of that acid secretion. Some variation in the biological potency of a particular sample is found if it is measured in different dogs or on different occasions and so the result is best expressed as a range of doses. The physiological effect of inhibiting the secretion of acidic gastric juice is of value in the treatment of duodenal ulcers, and under the test conditions, no serious toxic effects were observed. The polypeptides of the invention also show ulcer healing properties in a standard test.
In the case of each process involving the use of a chromatography column, the eluate was collected in fractions consisting of a defined number of drops using an Ultrorac LKB 7,000 fraction collector (LKB Instruments Ltd., Croydon, Surrey, U.K.) and these fractions assayed for peptide material by measuring the U.V. absorption at 280 mμ. The material was then collected in fractions and the material assayed for biological activity as follows:
Dogs were prepared with separated denervated fundic pouches, and a subcutaneous infusion of histamine was used to stimulate gastric secretion to approximately 60-80% of the maximal rate [usually an infusion of a solution of 600 μg. of histamine (expressed as base) in 0.48 ml. per hour is adequate]. A known amount of test material was dissolved in isotonic saline and, when the dog was secreting gastric juice at a steady rate, a single intravenous injection of this material was administered.
The biological potency may be determined from the results obtained at several different doses.

[2] = Water solubility of the isolated lyophilized polypeptide; format: physicochemical; conditions: lyophilized white acidic polypeptide

With “3: polypeptide of Example 2 in which the cystine residues had been reduced to cysteine residues (NSDSECPLSHDGYCLHDGVCMYIEALDKYACNCVVGYIGERCQYRD; Epidermal growth factor cystines reduced; UniProt P01133 971-1016, looked up, fragment) [Example 3]” the “biological activity (inhibition of the secretion of acidic gastric juice), in words” value [1] was “potent inhibitors”.

For “Example 2: 46-residue single-chain polypeptide with three internal disulphide bonds, from the 47-residue polypeptide by carboxypeptidase A cleavage of C-terminal leucine (NSDSECPLSHDGYCLHDGVCMYIEALDKYACNCVVGYIGERCQYRD; Epidermal growth factor; UniProt P01133 971-1016, looked up, fragment)”, the “biological activity (inhibition of the secretion of acidic gastric juice), in words” value [1] was “biologically active”, the “biological activity (inhibition of the secretion of acidic gastric juice), in words” value ([1]; listed as polypeptide of the invention) was “potent inhibitors” and the “biological potency (amount causing a 50-70% inhibition of acid secretion)” value [1] was 0.2 to 1 μg./kg. For the same substance, the “biological activity, inhibition of gastric secretion” value ([1]; dose equivalent to 0.6 μg./kg. of starting material) was 42% and the solubility in water [2] was “water soluble”.

For “material in fractions 38-52: peptide cleaved from β-urogastrone by AM protease; ratios Glu 1, Leu 1, Lys 1, Trp 2, Arg 1; N-terminal lysine (KWWELR; Epidermal growth factor; UniProt P01133 1018-1023, looked up, fragment)”, the “biological activity (inhibition of the secretion of acidic gastric juice), in words” value [1] was “biologically inactive”.

With “polypeptide having 47 amino-acid residues: 47-residue single-chain polypeptide with three disulphide bonds obtained by incubating β-urogastrone with AM protease (NSDSECPLSHDGYCLHDGVCMYIEALDKYACNCVVGYIGERCQYRDL; Epidermal growth factor; UniProt P01133 971-1017, looked up, fragment)” the “biological activity (inhibition of the secretion of acidic gastric juice), in words” value [1] was “biologically active”, the “biological potency (amount causing a 50-70% inhibition of acid secretion)” value [1] was 0.2 to 1 μg./kg and the “biological activity, inhibition of gastric secretion” value ([1]; dose equivalent to 0.7 μg./kg. of starting material) was 30%. For the same substance, the solubility in water [2] was “water soluble”.

— patent US4035485A, “Polypeptides” (Imperial Chemical Industries Limited, priority 1974, dated 1977)
